Experimental data: patent US20050208000A1, “Compositions and methods for prevention of photoaging” (priority 1999, published 2005)

System: human elastin promoter
Test: Transgenic mouse model of photoaging: human elastin promoter/CAT reporter activity in skin after solar simulating radiation
Type: in vivo, mice
From the text: A transgenic mouse model which contains the human elastin promoter linked to a chloramphenicol acetyltransferase (CAT) reporter gene for testing compounds that may inhibit cutaneous photodamage has been developed. These mice express human elastin promoter activity in a tissue-specific and developmentally regulated manner. […] In addition, quantitative data can be obtained after only a single exposure to ultraviolet radiation. A test compound is applied to the skin of a transgenic mouse capable of expressing the human elastin promoter. The transgenic mouse is then exposed to solar radiation and human elastin promoter activity in the mouse is determined. The human elastin promoter activity is then compared to that in transgenic mice also exposed to an equivalent dose of solar radiation which were not treated with the test compound to determine whether or not the test compound provided protection against the solar radiation. […]
Using this transgenic mouse line, the ability of alpha 1-antitrypsin to inhibit the effects of solar radiation on human elastin promoter activity was determined. […]
To measure the expression of the human elastin promoter/CAT reporter gene construct in the skin of transgenic, mice and in fibroblast cultures established from these animals, CAT activity was determined. […]

Substance: alpha 1-antitrypsin
- reduction in CAT activity (topical 20 mg/ml alpha 1-antitrypsin in goat's milk versus goat's milk alone, 20 MEDs SSR on three consecutive days): 69%
- Relative increase in CAT activity (mean+S.D.) (transgenic mice, topical application to the back about 15 min before 20 MEDs SSR, three consecutive days, skin harvested 24 hours after third phototreatment, baseline of unirradiated untreated control mice standardized to one): 4.5+1.0
